Assay results as given in paper PMC6150365, “Simultaneous Determination of Seven Components in Rat Plasma by the UPLC-MS/MS Method and Application of Pharmacokinetic Studies to SimiaoYong’an Decoction” (Molecules : A Journal of Synthetic Chemistry and Natural …, 2017).

Experiment: Pharmacokinetic study in rats after oral administration of SYD extract and its single and combined TCM extracts (UPLC-MS/MS of plasma)
Conditions: for MRT last: MRT(0–t); for MRT inf: MRT(0–∞); for half-life: t1/2, rat plasma
[1] = male, Sprague-Dawley, rat, plasma, po, 0.68 g/kg, rat plasma, oral GU extract 0.68 g/kg, n = 6
[2] = male, Sprague-Dawley, rat, plasma, po, 2.14 g·kg^−1 (extract), rat plasma, oral LJ + GU extract, n = 6
[3] = male, Sprague-Dawley, rat, plasma, po, 2.43 g/kg, rat plasma, oral AS + GU extract 2.43 g/kg, n = 6
[4] = male, Sprague-Dawley, rat, plasma, po, 3.38 g/kg extract (6.67 g/kg as herbs), rat plasma, oral SN + GU extract, n = 6
[5] = male, Sprague-Dawley, rat, plasma, po, 4.01 g·kg^−1 (extract), rat plasma, oral LJ + AS + GU extract, n = 6
[6] = male, Sprague-Dawley, rat, plasma, po, 4.73 g/kg, rat plasma, oral LJ + SN + GU extract 4.73 g/kg, n = 6
[7] = male, Sprague-Dawley, rat, plasma, po, 8.25 g/kg, rat plasma, oral SYD extract 8.25 g/kg, n = 6

Q: For `O=C1C[C@@H](c2ccc(O[C@@H]3O[C@H](CO)[C@@H](O)[C@H](O)[C@H]3O)cc2)Oc2cc(O)ccc21` [Liquiritin, liquiritin], which AUC(0-t) [1] is on record?
A: 190 ng·h/mL

Q: And the AUC(0-inf) (male, Sprague-Dawley, rat, plasma, po, 0.68 g/kg, AUC(0–∞), rat plasma, oral GU extract 0.68 g/kg, n = 6)?
A: 190 ng·h/mL

Q: What about the Cmax (male, Sprague-Dawley, rat, plasma, po, 0.68 g/kg, Cmax, rat plasma, oral GU extract 0.68 g/kg, n = 6) of the same compound?
A: 270 ng/mL

Q: What about the MRT last [1] of the same compound?
A: 1.16 ± 0.01 h

Q: And the MRT inf [1]?
A: 1.19 ± 0.01 h

Q: What about the Tmax (male, Sprague-Dawley, rat, plasma, po, 0.68 g/kg, Tmax, rat plasma, oral GU extract 0.68 g/kg, n = 6) of the same compound?
A: 0.08 h

Q: What about the half-life (male, Sprague-Dawley, rat, plasma, po, 0.68 g/kg, oral GU extract 0.68 g/kg, n = 6) of the same compound?
A: 4.41 ± 0.59 h

Q: What about the AUC(0-inf) (male, Sprague-Dawley, rat, plasma, po, 2.14 g·kg^−1 (extract), AUC(0–∞), rat plasma, oral LJ + GU extract, n = 6) of the same compound?
A: 200 ± 60 ng·h/mL

Q: And the MRT last [2]?
A: 2.53 ± 0.56 h

Q: And the MRT inf [2]?
A: 13.5 ± 11 h

Q: And the Tmax (male, Sprague-Dawley, rat, plasma, po, 2.14 g·kg^−1 (extract), Tmax, rat plasma, oral LJ + GU extract, n = 6)?
A: 0.56 ± 0.56 h

Q: And the half-life (male, Sprague-Dawley, rat, plasma, po, 2.14 g·kg^−1 (extract), oral LJ + GU extract, n = 6)?
A: 12.2 ± 7.3 h

Q: What about the AUC(0-t) (male, Sprague-Dawley, rat, plasma, po, 2.14 g·kg^−1 extract, rat plasma, oral LJ + GU extract, n = 6) of the same compound?
A: 180 ± 60 ng·h/mL

Q: What about the AUC(0-t) [3] of the same compound?
A: 220 ± 80 ng·h/mL

Q: And the AUC(0-inf) (male, Sprague-Dawley, rat, plasma, po, 2.43 g/kg, AUC(0–∞), rat plasma, oral AS + GU extract 2.43 g/kg, n = 6)?
A: 240 ± 80 ng·h/mL

Q: And the MRT last [3]?
A: 2.3 ± 0.63 h

Q: And the MRT inf [3]?
A: 11.1 ± 8.58 h

Q: And the Tmax (male, Sprague-Dawley, rat, plasma, po, 2.43 g/kg, Tmax, rat plasma, oral AS + GU extract 2.43 g/kg, n = 6)?
A: 0.6 ± 0.5 h

Q: What about the half-life (male, Sprague-Dawley, rat, plasma, po, 2.43 g/kg, oral AS + GU extract 2.43 g/kg, n = 6) of the same compound?
A: 9.28 ± 5.92 h

Q: What about the MRT last [4] of the same compound?
A: 2.48 ± 0.46 h

Q: What about the MRT inf [4] of the same compound?
A: 12.4 ± 9.87 h

Q: What about the Tmax (male, Sprague-Dawley, rat, plasma, po, 3.38 g/kg extract (6.67 g/kg as herbs), Tmax, rat plasma, oral SN + GU extract, n = 6) of the same compound?
A: 0.42 ± 0.53 h

Q: And the half-life (male, Sprague-Dawley, rat, plasma, po, 3.38 g/kg extract (6.67 g/kg as herbs), oral SN + GU extract, n = 6)?
A: 7.81 ± 5.31 h

Q: And the AUC(0-t) (male, Sprague-Dawley, rat, plasma, po, 3.38 g·kg^−1 (extract), rat plasma, oral SN + GU extract, n = 6)?
A: 180 ± 50 ng·h/mL

Q: And the AUC(0-inf) (male, Sprague-Dawley, rat, plasma, po, 3.38 g·kg^−1 (extract), AUC(0–∞), rat plasma, oral SN + GU extract, n = 6)?
A: 210 ± 50 ng·h/mL

Q: What about the Cmax (male, Sprague-Dawley, rat, plasma, po, 3.38 g·kg^−1 extract, Cmax, rat plasma, oral SN + GU extract, n = 6) of the same compound?
A: 150 ± 70 ng/mL

Q: And the AUC(0-t) [5]?
A: 220 ± 130 ng·h/mL

Q: What about the AUC(0-inf) (male, Sprague-Dawley, rat, plasma, po, 4.01 g·kg^−1 (extract), AUC(0–∞), rat plasma, oral LJ + AS + GU extract, n = 6) of the same compound?
A: 260 ± 140 ng·h/mL

Q: And the Cmax (male, Sprague-Dawley, rat, plasma, po, 4.01 g·kg^−1 (extract), Cmax, rat plasma, oral LJ + AS + GU extract, n = 6)?
A: 210 ± 170 ng/mL

Q: And the MRT last [5]?
A: 2.41 ± 0.63 h

Q: What about the MRT inf [5] of the same compound?
A: 16 ± 11.8 h

Q: What about the Tmax (male, Sprague-Dawley, rat, plasma, po, 4.01 g·kg^−1 (extract), Tmax, rat plasma, oral LJ + AS + GU extract, n = 6) of the same compound?
A: 0.79 ± 0.29 h

Q: What about the half-life (male, Sprague-Dawley, rat, plasma, po, 4.01 g·kg^−1 (extract), oral LJ + AS + GU extract, n = 6) of the same compound?
A: 13.7 ± 4.69 h

Q: And the AUC(0-t) [6]?
A: 230 ± 160 ng·h/mL

Q: What about the AUC(0-inf) (male, Sprague-Dawley, rat, plasma, po, 4.73 g/kg, AUC(0–∞), rat plasma, oral LJ + SN + GU extract 4.73 g/kg, n = 6) of the same compound?
A: 260 ± 170 ng·h/mL

Q: What about the MRT last [6] of the same compound?
A: 2.5 ± 0.67 h

Q: What about the MRT inf [6] of the same compound?
A: 16.3 ± 12.9 h

Q: What about the Tmax (male, Sprague-Dawley, rat, plasma, po, 4.73 g/kg, Tmax, rat plasma, oral LJ + SN + GU extract 4.73 g/kg, n = 6) of the same compound?
A: 0.88 ± 0.31 h

Q: What about the half-life (male, Sprague-Dawley, rat, plasma, po, 4.73 g/kg, oral LJ + SN + GU extract 4.73 g/kg, n = 6) of the same compound?
A: 13.4 ± 5.15 h

Q: What about the AUC(0-inf) (male, Sprague-Dawley, rat, plasma, po, 8.25 g/kg) of the same compound?
A: 340 ± 210 ng·h/mL

Q: And the AUC(0-t) [7]?
A: 290 ± 210 ng·h/mL

Q: What about the Cmax (male, Sprague-Dawley, rat, plasma, po, 8.25 g/kg, Cmax, rat plasma, oral SYD extract 8.25 g/kg, n = 6) of the same compound?
A: 210 ± 170 ng/mL

Q: What about the MRT last [7] of the same compound?
A: 2.89 ± 0.92 h

Q: What about the MRT inf [7] of the same compound?
A: 11.3 ± 7.16 h

Q: And the Tmax (male, Sprague-Dawley, rat, plasma, po, 8.25 g/kg, Tmax, rat plasma, oral SYD extract 8.25 g/kg, n = 6)?
A: 0.88 ± 0.31 h

Q: And the half-life (male, Sprague-Dawley, rat, plasma, po, 8.25 g/kg, oral SYD extract 8.25 g/kg, n = 6)?
A: 13.4 ± 5.59 h

Q: What about the half-life (male, Sprague-Dawley, rat, plasma, po, […], oral SN + AS + GU extract […], n = 6) of the same compound?
A: 11.6 ± 5.01 h

Q: And the Cmax (rat plasma, oral AS + GU extract 2.43 g/kg, n = 6)?
A: 200 ± 130 ng/mL

Q: And the Cmax (rat plasma, oral LJ + GU extract, n = 6)?
A: 140 ± 70 ng/mL

Q: What about the Tmax (rat plasma, oral SN + AS + GU extract […], n = 6) of the same compound?
A: 1.00 ± 0.27 h
